Consider 20 compounds from patent publication US20250032454A1, “KDM1A INHIBITORS FOR THE TREATMENT OF DISEASE” (Imago Biosciences, Inc., priority 2021, published 2025).

One experiment deals with LSD1 (Homo sapiens, UniProt O60341). The experiment in a line: LSD1 fluorescence coupling enzyme assay (HRP/Amplex Red, H3(1-21)K4me2 peptide), 10-dose IC50. The class given is biochemical. As to conditions: 10 μM histone H3(1-21)K4me2 peptide substrate, 3-fold serial dilution from 100 μM. An excerpt:
Assaying the inhibition of KDM1A can be determined in vitro, in cultured cells, and in animals. There are a variety of spectrophotometric methods to detect the results of demethylation of methylated lysines, viz., detecting the products of KDM1A demethylase oxidative activity on a peptide fragment of at least 18 amino acids representing the N-terminus of the histone H3 substrate that contains a monomethyl at the fourth lysine residue. Hydrogen peroxide, one product of the KDM1A demethylase reaction, reacts with horseradish peroxidase and dihydroxyphenoxazine (ADHP) to produce the fluorescent compound resorufin (excitation=530-560 nm: emission=590 nm). The KDM1A demethylase enzyme activity can be obtained from mammalian cells or tissues expressing KDM1A from an endogenous or recombinant gene and purified or assayed from a whole cell extract. These methods can be used to determine the concentration of the disclosed compounds can inhibit fifty percent of the enzyme activity (IC50).
Alternatively, the production of H2O2 during the KDM1A reaction can be detected fluometrically. In this system, the production of H2O2 is detected in the HDM assay buffer after exposure to substrate, co-factor and enzyme using ADHP (10-Acetyl-3, 7-dihydroxyphenoxazine) as a fluorogenic substrate for horse radish peroxidase (HRP). […] The florescent product is resorufin. Sensitivity can be as low as 10-15 M of target protein. The signal is read using a fluorescence microplate reader at excitation and emission wavelengths of 530-560 nm and 590 nm, respectively.
Compounds were tested in a 10-dose IC50 mode fluorescence coupling enzyme assay with 3-fold serial dilution in duplicate starting at 100 μM. The production of FAD-dependent H2O2 as a result of demethylase activity of LSD1 on 10 μM histone H3(1-21)K4me2 peptide substrate was measured by coupling with HRP and Amplex Red to yield resorufin (fluorescence measured at Ex/Em=535/590 nm on EnVision, Perkin Elmer).

A further experiment has as its system MV4;11 cells. The experiment can be described thus: Cell Titer-Glo cell growth inhibition in MV4;11 cell line (Day 5 / Day 10). The class given is cell-based. As to conditions: Homo sapiens. On the procedure: Cell growth inhibition against MV4;11 cells was confirmed for the synthetic compounds. The Cell Titer-Glo Luminescent Cell Viability Assay (Promega, USA) was used to determine the number of viable cells in culture based on quantitation of the ATP present, which signals the presence of metabolically active cells. This assay was run in a 96-well plate format arrayed in a 10-point dose curve, ranging from 0 to 50 µM with 4-fold dilutions for each compound. Cells are seeded on Day 0 at 3750 cells per well. At Day 5, a portion of each well is assayed for viability according to the Cell Titer-Glo protocol. Briefly, cells/plates were centrifuged at 1100×g for 5 minutes. 100 μL of media was removed from each well and replaced with 100 μL of CellTiter-Glo. The plates were shaken at room temperature for 10 minutes and measured on a luminescence plate reader. Another portion of each well from the Day 5 plate is used to seed a new 96 plate containing fresh compound and media set up in the equivalent 10-point dose curve array in order to continue the cell growth inhibition assay for another 5 days. A final timepoint is collected at Day 10 using the Cell Titer-Glo protocol. Luminescence was detected on an En Vision® Multilabel Plate Reader (Perkin Elmer, Waltham, Mass.) and IC50 determination was made using Graph Pad Prism software.
On the technique in general: In ATP-based viability assays light output follows the ATP content of the culture.

Where two headings read alike, the source gives them in different places.

At LSD1, `CO[C@H]1CCCN(c2ccc(-n3nc(NC[C@H]4CCC[C@H](N)C4)cc3-c3ccc(C#N)c(F)c3)cc2)C1` [Example 98, 4-(3-((((1S,3S)-3-aminocyclohexyl)methyl)amino)-1-(4-((S)-3-methoxypiperidin-1-yl)phenyl)-1H-pyrazol-5-yl)-2-fluorobenzonitrile 2,2,2-trifluoroacetate] returned an IC50 of under 500 nM.
Still for that read-out and setting: for `COc1cc(N2CCS(=O)(=O)CC2)ccc1-n1nc(NCC23CCN(CC2)CC3)cc1-c1ccc(C#N)c(F)c1` [Example 126, 4-(1-(4-(1,1-Dioxidothiomorpholino)-2-methoxyphenyl)-3-((quinuclidin-4-ylmethyl)amino)-1H-pyrazol-5-yl)-2-fluorobenzonitrile 2,2,2-trifluoroacetate] the value was under 500 nM.
Still for that read-out and setting: the same measure for `N#Cc1ccc(-c2cc(NC[C@@H]3CCCNCC3)nn2-c2ccc(N3CCS(=O)(=O)CC3)cc2F)cc1F` [Example 106, (R)-4-(3-((azepan-4-ylmethyl)amino)-1-(4-(1,1-dioxidothiomorpholino)-2-fluorophenyl)-1H-pyrazol-5-yl)-2-fluorobenzonitrile]: under 500 nM.
As to `N#Cc1ccc(-c2cc(NC[C@@H]3CCCNCC3)nn2-c2ccc(N3CC[S+]([O-])CC3)cc2)cc1F` [Example 91, (R)-4-(3-((azepan-4-ylmethyl)amino)-1-(4-(1-oxidothiomorpholino)phenyl)-1H-pyrazol-5-yl)-2-fluorobenzonitrile 2,2,2-trifluoroacetate], the IC50 on LSD1 was under 500 nM.
Take `CCOC1CCN(c2ccc(-n3nc(NC[C@H]4CCC[C@H](N)C4)cc3-c3ccc(C#N)c(F)c3)cc2)CC1` [Example 97, 4-(3-((((1S,3S)-3-aminocyclohexyl)methyl)amino)-1-(4-(4-ethoxypiperidin-1-yl)phenyl)-1H-pyrazol-5-yl)-2-fluorobenzonitrile 2,2,2-trifluoroacetate]: on LSD1, the IC50 was under 500 nM.
Take `CN1CCN(c2ccc(-n3nc(NC[C@H]4CCC[C@H](NC(=N)N)C4)cc3-c3ccc(C#N)c(F)c3)cc2)CC1` [Example 127, 1-((1S,3S)-3-(((5-(4-cyano-3-fluorophenyl)-1-(4-(4-methylpiperazin-1-yl)phenyl)-1H-pyrazol-3-yl)amino)methyl)cyclohexyl)guanidine 2,2,2-trifluoroacetate]: at LSD1, the IC50 is under 500 nM.
On the same count and under the same terms, the same measure for `CC1(O)CCN(c2ccc(-n3nc(NC[C@H]4CCC[C@H](N)C4)cc3-c3ccc(C#N)c(F)c3)cc2)CC1` [Example 101, 4-(3-((((1S,3S)-3-aminocyclohexyl)methyl)amino)-1-(4-(4-hydroxy-4-methylpiperidin-1-yl)phenyl)-1H-pyrazol-5-yl)-2-fluorobenzonitrile 2,2,2-trifluoroacetate]: under 500 nM; for `CC(C)OC1CCN(c2ccc(-n3nc(NC[C@H]4CCC[C@H](N)C4)cc3-c3ccc(C#N)c(F)c3)cc2)CC1` [Example 94, 4-(3-((((1S,3S)-3-aminocyclohexyl)methyl)amino)-1-(4-(4-isopropoxypiperidin-1-yl)phenyl)-1H-pyrazol-5-yl)-2-fluorobenzonitrile 2,2,2-trifluoroacetate]: under 500 nM.
`N#Cc1ccc(-c2cc(NC[C@H]3CCC[C@H](N)C3)nn2-c2ccc(N3CCOCC3)cc2)cc1F` [Example 96, 4-(3-((((1S,3S)-3-aminocyclohexyl)methyl)amino)-1-(4-morpholinophenyl)-1H-pyrazol-5-yl)-2-fluorobenzonitrile 2,2,2-trifluoroacetate]: the IC50 against LSD1 is under 500 nM.
Still for that read-out and setting: the same measure for `N#Cc1ccc(-c2cc(NCC3CCCNCC3)nn2-c2ccc(N3CCS(=O)(=O)CC3)c(F)c2)cc1F` (stereo not drawn) [Example 110, 4-(3-((azepan-4-ylmethyl)amino)-1-(4-(1,1-dioxidothiomorpholino)-3-fluorophenyl)-1H-pyrazol-5-yl)-2-fluorobenzonitrile 2,2,2-trifluoroacetate]: under 500 nM; for `COC1CCN(c2ccc(-n3nc(NC[C@H]4CCC[C@H](N)C4)cc3-c3ccc(C#N)c(F)c3)nc2)CC1` [Example 120, 4-(3-((((1S,3S)-3-aminocyclohexyl)methyl)amino)-1-(5-(4-methoxypiperidin-1-yl)pyridin-2-yl)-1H-pyrazol-5-yl)-2-fluorobenzonitrile 2,2,2-trifluoroacetate]: under 500 nM.
The same measure, in the same setting: for `N#Cc1ccc(-c2cc(NC[C@H]3CCC[C@H](N)C3)nn2-c2ccc(N3CCC(C#N)CC3)cc2)cc1F` [Example 103, 1-(4-(3-((((1S,3S)-3-aminocyclohexyl)methyl)amino)-5-(4-cyano-3-fluorophenyl)-1H-pyrazol-1-yl)phenyl)piperidine-4-carbonitrile 2,2,2-trifluoroacetate] the value was under 500 nM; for `N#Cc1ccc(-c2cc(NCC34CCN(CC3)CC4)nn2-c2ccc3c(c2)NCCO3)cc1F` [Example 123, 4-(1-(3,4-Dihydro-2H-benzo[b][1,4]oxazin-6-yl)-3-((quinuclidin-4-ylmethyl)amino)-1H-pyrazol-5-yl)-2-fluorobenzonitrile 2,2,2-trifluoroacetate], under 500 nM; for `COC1CCN(c2cccc(-n3nc(NC[C@H]4CCC[C@H](N)C4)cc3-c3ccc(C#N)c(F)c3)c2)CC1` [Example 118, 4-(3-((((1S,3S)-3-aminocyclohexyl)methyl)amino)-1-(3-(4-methoxypiperidin-1-yl)phenyl)-1H-pyrazol-5-yl)-2-fluorobenzonitrile 2,2,2-trifluoroacetate], 1000 to 10000 nM.
Same read-out and setting: for `N#Cc1ccc(-c2cc(NC[C@@H]3CCCNCC3)nn2-c2ccc(N3CCS(=O)(=O)CC3)c(F)c2)cc1F` [Example 111, (R)-4-(3-((azepan-4-ylmethyl)amino)-1-(4-(1,1-dioxidothiomorpholino)-3-fluorophenyl)-1H-pyrazol-5-yl)-2-fluorobenzonitrile 2,2,2-trifluoroacetate] the value was under 500 nM.
`COc1cc(N2CCS(=O)(=O)CC2)ccc1-n1nc(NC[C@@H]2CCCNCC2)cc1-c1ccc(C#N)c(F)c1` [Example 113, (R)-4-(3-((azepan-4-ylmethyl)amino)-1-(4-(1,1-dioxidothiomorpholino)-2-methoxyphenyl)-1H-pyrazol-5-yl)-2-fluorobenzonitrile 2,2,2-trifluoroacetate] gave an IC50 against LSD1 of under 500 nM.
Same read-out and setting: for `N#Cc1ccc(-c2cc(NCC34CCN(CC3)CC4)nn2-c2ccc(N3CC4CC3CS4(=O)=O)cc2)cc1F` (stereo not drawn) [Example 121, 4-(1-(4-(2,2-Dioxido-2-thia-5-azabicyclo[2.2.1]heptan-5-yl)phenyl)-3-((quinuclidin-4-ylmethyl)amino)-1H-pyrazol-5-yl)-2-fluorobenzonitrile 2,2,2-trifluoroacetate] the value was under 500 nM; for `CC1(O)CCN(c2ccc(-n3nc(NC[C@H]4CCC[C@H](N)C4)cc3-c3ccc(C#N)c(F)c3)c(F)c2)CC1` [Example 116, 4-(3-((((1S,3S)-3-aminocyclohexyl)methyl)amino)-1-(2-fluoro-4-(4-hydroxy-4-methylpiperidin-1-yl)phenyl)-1H-pyrazol-5-yl)-2-fluorobenzonitrile 2,2,2-trifluoroacetate], under 500 nM; for `N#Cc1ccc(-c2cc(NC[C@H]3CCC[C@H](N)C3)nn2-c2ccc(N3CCNC(=O)C3)cc2)cc1F` [Example 104, 4-(3-((((1S,3S)-3-aminocyclohexyl)methyl)amino)-1-(4-(3-oxopiperazin-1-yl)phenyl)-1H-pyrazol-5-yl)-2-fluorobenzonitrile], under 500 nM.
As for `N#Cc1ccc(-c2cc(NCC3CCC[C@H](N)C3)nn2-c2ccc3nn(-c4ccncc4)cc3c2)cc1F` (stereo partly drawn) [Example 75, 4-(3-((((15,3S)-3-aminocyclohexyl)methyl)amino)-1-(2-(pyridin-4-yl)-2H-indazol-5-yl)-1H-pyrazol-5-yl)-2-fluorobenzonitrile], the half-maximal inhibitory concentration (IC50) in the experiment with MV4;11 cells (MV4-11, 120 h, Day 5, read-out: Cell Titer-Glo IC50 (5 d)) is 500 to 1000 nM; in the experiment with MV4;11 cells (MV4-11, 240 h, Day 10, read-out: Cell Titer-Glo IC50 (10 d)) it was under 500 nM.

As usually defined, the IC50 is the concentration that gives 50% inhibition.
